Experimental data taken from patent publication US20260374767A1, “FUSED HETEROCYCLIC COMPOUNDS AND USES THEREOF” (Chengdu Zenitar Biomedical Technology Co., Ltd., priority 2022, published 2026).

How the values were obtained:
[1] = Pharmacokinetic evaluation in SD rat; assay type: in vivo; settings: SD rats
Procedure: Pharmacokinetic Evaluation of Compound in SD Rat
(§2) Experimental purpose: To learn pharmacokinetic profiles of compounds.
Experimental scheme: The pharmacokinetic profile of the compound was investigated by oral intravenous administration in SD rats.
Experimental procedure: The compound, a small amount of DMSO and a sodium chloride injection were added to prepare the final solution for administration. The compound was orally administered to 6 male SD rats. […] The supernatant was collected and transferred into a sample vial for assay. Range of standard curve: 10-10,000 ng mL^−1.

breast cancer MDA-MB-436 [2] = assay: In-vivo pharmacodynamic study on subcutaneous xenograft tumor model of breast cancer MDA-MB-436; set-up: species or system human tumor cells in NOD/SCID mice
Procedure: Strain: NOD/SCID; Grade: SPF; Source: Beijing Vitron River Bio-technology Co., Ltd.
The cells were washed 3 times with pre-cooled PBS, centrifuged at 300 g for 10 min, collected, re-suspended in PBS, and counted with a blood cell counting chamber, and the cell concentration was adjusted. After cell collection, the cell suspension was pre-cooled on ice. 100 μL of the cell suspension was administered via subcutaneous injection into the dorsal flank of the mice, and the grouped treatment was started when the tumor volume reached 200-300 mm^3.
Animal assay: all viable experimental animals scheduled for assay; Assay time: All animals were weighed before the modeling for test grouping. After modeling, the mice were weighed once every 2 days, and the weight change of the mice was recorded in real time. Effective criteria: tumor volume (TV), relative tumor volume (RTV) and relative tumor growth rate of subcutaneously implanted tumor model. […] The calculation formula of tumor volume (TV) was: TV (mm^3)=a×b2×0.5, where a and b were the long diameter and short diameter, respectively.
The evaluation index for anti-tumor activity was the relative tumor growth rate T/C (%), and the calculation formula was as follows: […]
Where, TRTV is relative tumor volume of the treatment group; CRTV is relative tumor volume of the negative control group. […] The tumor inhibition rate (%) was calculated by the formula below: […]
All raw data within the facility were collected manually according to the experimental scheme and the relevant guidelines of the research institution, or gathered by using a data acquisition system. Manually collected data can be transcribed into software such as Excel for analysis and reporting. The data from each group were quantitative, and the experimental data for each group of animals in the tables were expressed as mean±standard deviation (Mean±SD). In the figures, the experimental data ware described as mean±standard error of the mean (Mean±SEM). Statistical analysis, including t-tests and survival analysis, was performed by using the software such as EXCEL and GraphPad Prism.
After 24 days of administration, the tumor-bearing mice were anesthetized and euthanized. The tumor tissues were dissected, weighed, and photographed, and the tumor inhibition rate was calculated.

DLD-1 cells = assay: Anti-proliferative activity assay, BRCA wild-type DLD-1 cells (CCK8); assay type: cell-based; settings: Homo sapiens, 72 h + 96 h
Excerpt: (§1) 2. Anti-Proliferative Activity Assay of Cell:

MDA-MB-436 cells = assay: Anti-proliferative activity assay, BRCA-mutated MDA-MB-436 cells (CCK8); assay type: cell-based; settings: Homo sapiens, MDA-MB-436, BRCA-mutated, 72 h + 96 h
Excerpt: as §1

gastric cancer PDX = assay: In-vivo pharmacodynamic study on PDX gastric cancer mice model; set-up: species or system patient-derived tumor in mice
Procedure: 7. In-Vivo Pharmacodynamic Study of Compound 6 on PDX Gastric Cancer Mice model
Experimental procedure: Tumor tissues from gastric cancer patients were used to establish a stable passaged tumor-bearing mice model. In this study, tumor fragments from mice that had been stably passaged three times were used for subcutaneous inoculation. Eight groups were divided for the experiment, with 6 mice in each group. The negative control group (Control) received normal saline at 0.2 mL per mice per administration, given orally once per day; the carboplatin control group (Carboplatin, Car) received 20 mg/kg at 0.2 mL per mice per administration, administered via intraperitoneal injection once every 7 days.

[3] = Pharmacokinetic evaluation in Balb/c mice; assay type: in vivo; settings: 1 mg/kg orally
Procedure: Pharmacokinetic Evaluation of Compound in Balb/c Mice
as §2
Experimental scheme: The pharmacokinetic profile of the compound was investigated by means of administering it intravenously (1 mg kg^−1) and orally (1 mg kg^−1) to Balb/c mice.
Sample preparation: About 0.2 mg of the compound was dissolved in 10 μL DMSO, then a sodium chloride injection was added to make a 0.1 mg mL^−1 solution of the compound for administration.
Three mice were administered the compound intravenously (IV) at a dose of 1 mg kg^−1, and the other three were administered the compound orally (PO) at the same dose. […] The plasma concentration of the drug was quantitatively analyzed with the LC-MS/MS method, and pharmacokinetic parameters were calculated, including the time to peak concentration (Cmax), area under the concentration-time curve (AUC(0-t)), half-life (T1/2), clearance (CL), volume of distribution at steady state (Vdss), and bioavailability (F).

SUM14PT = assay: In-vivo pharmacodynamic study on subcutaneous xenograft tumor model of breast cancer SUM14PT; set-up: species or system nude mice
Procedure: Experimental procedure: In this study, a mice model was established by subcutaneously inoculating SUM14PT tumor cells. Eight groups were divided for the experiment, with 6 mice in each group. The negative control group (Control) received normal saline at 0.2 mL per mice per administration, given orally once per day; the carboplatin control group (Carboplatin, Car) received 20 mg/kg at 0.2 mL per mice per administration, administered via intraperitoneal injection once every 7 days.

breast cancer MDA-MB-436 [4] = assay: Challenge experiment on subcutaneous xenograft tumor model of breast cancer MDA-MB-436 (large-volume tumors)
Procedure: Each group consisted of 5 mice and was administered orally once per day. The body weight of the mice was measured every 2 days, and the length and width of the tumors with a vernier caliper.

[5] = Body weight in MDA-MB-436 xenograft study; assay type: in vivo, NOD/SCID mice; settings: for Body weight X ± SD, End: 24 days
Procedure: Animal assay: all viable experimental animals scheduled for assay; Assay time: All animals were weighed before the modeling for test grouping. After modeling, the mice were weighed once every 2 days, and the weight change of the mice was recorded in real time. Effective criteria: tumor volume (TV), relative tumor volume (RTV) and relative tumor growth rate of subcutaneously implanted tumor model. The long diameter and short diameter of the tumor was measured with vernier calipers every 2 days, and the anti-tumor effects of the tested drug was dynamically observed. The calculation formula of tumor volume (TV) was: TV (mm^3)=a×b2×0.5, where a and b were the long diameter and short diameter, respectively.
Each group consisted of 6 mice, all of which are administered orally once daily. […] After 24 days of administration, the tumor-bearing mice were anesthetized and euthanized. The tumor tissues were dissected, weighed, and photographed, and the tumor inhibition rate was calculated.

[6] = 0.03 mg/kg orally once daily, 24 days
[7] = 0.1 mg/kg orally once daily, 24 days
[8] = 0.3 mg/kg orally once daily, 24 days

[2H]C([2H])([2H])C([2H])([2H])c1cc2ncc(CN3CC=C(c4ccc(C(=O)NC)nc4)CC3)cc2[nH]c1=O [Compound 6, 1′-((7-(ethyl-d5)-6-oxo-5,6-dihydro-1,5-naphthyridin-3-yl)methyl)-N-methyl-1′,2′,3′,6′-tetrahy dro-[3,4′-bipyridine]-6-carboxamide]
Cmax, comparison with AZD5305, compound 1 and compound 21 [1]: superior to those of the reference compound AZD5305, compound 1 and compound 21 | Tumor inhibition rate (breast cancer MDA-MB-436 [2]; [6]): 49.77% | Tumor weight X ± SD (breast cancer MDA-MB-436 [2]; [6]): 1.09 ± 0.29 g | Tumor volume X ± SD, End (breast cancer MDA-MB-436 [2]; [6]): 739.4 ± 308.7 mm^3 | Tumor volume X ± SD, Start (breast cancer MDA-MB-436 [2]; 0.03 mg/kg orally once daily): 275.0 ± 68.1 mm^3 | Tumor inhibition rate (breast cancer MDA-MB-436 [2]; [7]): 86.73% | Tumor weight X ± SD (breast cancer MDA-MB-436 [2]; [7]): 0.29 ± 0.09 g | Tumor volume X ± SD, End (breast cancer MDA-MB-436 [2]; [7]): 228.0 ± 75.9 mm^3 | Tumor volume X ± SD, Start (breast cancer MDA-MB-436 [2]; 0.1 mg/kg orally once daily): 274.7 ± 73.8 mm^3 | tumor inhibition effect, comparison with AZD5305, compound 1 and Olaparib (breast cancer MDA-MB-436 [2]; 0.1 mg/kg vs same dose of AZD5305 and compound 1, vs Olaparib 100 mg/kg): superior to that of the reference compound AZD5305 and the compound 1 at the same dose, and significantly better than that of the reference drug Olaparib group (100 mg/kg) | Tumor inhibition rate (breast cancer MDA-MB-436 [2]; [8]): 95.83% | Tumor weight X ± SD (breast cancer MDA-MB-436 [2]; [8]): 0.09 ± 0.08 g | Tumor volume X ± SD, End (breast cancer MDA-MB-436 [2]; [8]): 71.0 ± 62.5 mm^3 | Tumor volume X ± SD, Start (breast cancer MDA-MB-436 [2]; 0.3 mg/kg orally once daily): 281.9 ± 67.4 mm^3 | complete tumor regression (breast cancer MDA-MB-436 [2]; 0.3 mg/kg, at the end of treatment): 2/6 | dose dependence among low, medium and high dose groups (breast cancer MDA-MB-436 [2]; 0.03, 0.1, 0.3 mg/kg, P<0.001, P<0.01): significant dose-dependent differences | inhibitory effects on tumor growth compared to blank control group (breast cancer MDA-MB-436 [2]; 24 days, all dose groups): significant inhibitory effects on tumor growth | IC50 (DLD-1 cells): > 10000 nM | IC50 (MDA-MB-436 cells): 0.6 nM | inhibition of tumor growth in gastric cancer PDX model (gastric cancer PDX; 3 mg/kg p.o. combined with carboplatin 20 mg/kg i.p.): significantly inhibit tumor growth | inhibitory effect on gastric cancer PDX model (gastric cancer PDX; combined with carboplatin (20 mg/kg i.p. once every 7 days), 0.3, 1, 3 mg/kg p.o.): dose-dependent inhibitory effect | Cmax, comparison with AZD5305 and compounds 1, 2, 3, 15, 21 [3]: superior to that of the reference compound 5305, as well as compounds 1, 2, 3, 15, and 21 | therapeutic efficacy in combination with carboplatin, compared to Olaparib plus carboplatin (SUM14PT; 1 mg/kg orally once daily + carboplatin vs Olaparib 100 mg/kg + carboplatin): better therapeutic efficacy than Olaparib | anti-tumor efficacy, monotherapy, compared to Olaparib (SUM14PT; 0.3 and 1 mg/kg orally once daily vs Olaparib 100 mg/kg orally once daily): better anti-tumor efficacy compared to Olaparib | rate of tumor regression, comparison with compounds 1 and 21 (breast cancer MDA-MB-436 [4]; 1 mg/kg orally once per day): faster rate of tumor regression compared to the compounds 1 and 21 | tumor regression in large-volume tumors (breast cancer MDA-MB-436 [4]; 1 mg/kg orally once per day): complete regression of tumors | in-vivo anti-tumor efficacy, comparison with compounds 1 and 21 (breast cancer MDA-MB-436 [4]; 1 mg/kg, same dose): stronger in-vivo anti-tumor efficacy than compounds 1 and 21 | Body weight X ± SD, End ([5]; 0.03 mg/kg orally once daily): 21.6 ± 0.7 g | Body weight X ± SD, Start ([5]; 0.03 mg/kg orally once daily): 22.6 ± 0.7 g | Body weight X ± SD, End ([5]; 0.1 mg/kg orally once daily): 21.6 ± 0.7 g | Body weight X ± SD, Start ([5]; 0.1 mg/kg orally once daily): 22.3 ± 1.0 g | Body weight X ± SD, End ([5]; 0.3 mg/kg orally once daily): 22.0 ± 0.9 g | Body weight X ± SD, Start ([5]; 0.3 mg/kg orally once daily): 22.3 ± 0.8 g
